The results in this text go back to PubChem BioAssay (NCI).

The structures appear in SMILES notation.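 Cells were grown in 96-well plates and exposed to each compound for 48 hours at five concentrations; endpoints were interpolated linearly between bracketing concentrations, or set to the highest concentration if not reached. Definition used: TGI = concentration required for complete inhibition of growth.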

What all share (assay): NCI-60 cell line screen, 48 h
Assay [1] has as its system MALME-3M melanoma.
The test system of assay [2] is LOX IMVI melanoma.
Assay [3] relates to BT-549 breast.
The subject of assay [4] is U251 CNS.
Assay [5] relates to UACC-257 melanoma.
The test system of assay [6] is SK-MEL-2 melanoma.
In assay [7] the test system is HS 578T breast.
The subject of assay [8] is OVCAR-4 ovarian.
The subject of assay [9] is K-562 leukemia.
Assay [10] concerns SNB-19 CNS.
For assay [11], the system named is SK-MEL-28 melanoma.
Assay [12] has as its system SK-OV-3 ovarian.
The subject of assay [13] is NCI-H226 lung.
The test system of assay [14] is CCRF-CEM leukemia.

Consider `C1=C(c2ccccc2)NC2=N[C@H]3CCCC[C@@H]3N2C1c1ccccc1` (stereo partly specified), for which the TGI amounted to 26.6 µM in [1]; 29.6 µM in [2]; 24 µM in [3]; 26.1 µM in assay [4]; 27.7 µM in assay [5]; 32 µM in assay [6]. For the same compound, the TGI was found to be 41.2 µM in [7]; 22.2 µM in assay [8]; 72.2 µM in assay [9]; 27.7 µM in [10]; 27.4 µM in [11]; 29.3 µM in assay [12]. Further, the TGI in assay [13] was found to be 28.9 µM; in assay [14] it was 43.4 µM.
As to `COC(=O)c1ccc(C)cc1C1CN=NC12Cc1c(C)cccc1C2=O` (stereo unspecified), the TGI in assay [1] is > 90.3 µM; in [2], > 70.7 µM; in assay [3] it was > 70.1 µM; in [4], > 100 µM; in [5], > 81.8 µM; in assay [6] it was 98.3 µM. Moreover, the TGI in [7] is > 100 µM; in assay [8], > 93.9 µM; in [9] it was > 100 µM; in assay [10], > 100 µM; in assay [11] it was > 100 µM; in assay [12], > 93.4 µM. Moreover, the TGI in assay [13] is > 90.8 µM; in [14] it was > 100 µM.
`O=C(N/N=C\c1ccc([N+](=O)[O-])cc1)Nc1ccc2ccccc2c1`: the TGI in [1] was 51.7 µM; in assay [2], > 100 µM; in assay [3], > 100 µM; in assay [4] it was 45.8 µM; in assay [5], > 100 µM; in assay [6], > 100 µM. The TGI was 70.6 µM in [7]; 46.2 µM in assay [8]; > 100 µM in assay [9]; > 100 µM in assay [10]; > 100 µM in assay [11]; 89.1 µM in [12]. Moreover, the TGI in assay [13] and in assay [14] was > 100 µM throughout.
Consider `CC1(c2cccc(C(F)(F)F)c2)CC(c2cccc(C(F)(F)F)c2)=C(C#N)C(=C(C#N)C#N)N1` (stereo unspecified), for which the TGI in [1] worked out at 32.4 µM; in assay [2], 34.1 µM; in assay [3] it was 40.9 µM; in [4] it was 35 µM; in assay [5] it was 31.7 µM; in assay [6], 41.1 µM. The TGI in assay [7] is 43.2 µM; in [8] it was 30.8 µM; in assay [9], 34.2 µM; in [10] it was 40 µM; in assay [11] it was 33.9 µM; in [12], 29.6 µM. Besides, the TGI in assay [13] came to 58.6 µM; in assay [14], 24.1 µM.
Regarding `O=C1C=CC2(C=C1)O[C@H](CCc1ccccc1)[C@@H](CCc1ccccc1)O2`, the TGI in assay [1] is > 100 µM; in [2], 27.3 µM; in assay [3], > 100 µM; in [4], 38.2 µM; in assay [5] it was > 100 µM; in [6] it was > 100 µM. Moreover, the TGI in [7], in [8], in assay [9], in [10], in assay [11] and in assay [12] was > 100 µM in each case. Moreover, the TGI in assay [13] and in [14] was > 100 µM in each case.
`COc1ccc(/C=N/n2c(Cc3ccccc3)n[nH]c2=O)c(OC)c1`: the TGI is > 100 µM in assay [1]; > 85.3 µM in [2]; > 49 µM in assay [3]; > 65.1 µM in assay [4]; > 100 µM in [5]; > 100 µM in assay [6]. The TGI in assay [7] is 37.5 µM; in assay [8], > 100 µM; in [9] it was > 100 µM; in assay [10] it was > 77.5 µM; in assay [11], > 100 µM; in assay [12] it was > 60.7 µM. Moreover, the values for the TGI in assay [13] and in [14] were > 80.9 µM and > 100 µM, respectively.
As to `N#Cc1ccccc1NC(=O)C(O)C(O)C(O)C(O)C=O` (stereo unspecified), the TGI in assay [1], in [2], in [3], in assay [4], in [5] and in assay [6] was > 100 µM in each case. Besides, the TGI in [7], in assay [8], in [9], in assay [10], in assay [11] and in assay [12] was > 100 µM each time. The TGI in [13] and in assay [14] was > 100 µM in each case.
In the case of `NC(N)=N/N=C/c1c(Cl)nc2n1CCS2`, the TGI in assay [1], in [2], in assay [3], in assay [4], in assay [5] and in assay [6] was > 100 µM each time. Besides, the TGI in [7], in assay [8], in [9], in [10], in [11] and in assay [12] was > 100 µM throughout. The TGI in assay [13] and in assay [14] was > 100 µM throughout.
In the case of `CCSc1c2cc(OC)ccc2nc2ccc(OC)cc12`, the TGI was 28.7 µM in [1]; > 76.9 µM in [2]; > 100 µM in assay [3]; > 79.2 µM in [4]; 30.4 µM in [5]; 48.7 µM in assay [6]. The TGI in assay [7] is > 100 µM; in assay [8], > 75.8 µM; in assay [9], > 44.1 µM; in [10], > 100 µM; in [11] it was > 59.2 µM; in assay [12], > 92.5 µM. Moreover, the TGI in assay [13] was 40.1 µM; in assay [14] it was > 42.9 µM.
